According to patent EP4714938A1, “HDAC1/2 SELECTIVE INHIBITOR AND USE THEREOF” (Wigen Biomedicine Technology (Shanghai) Co., Ltd., priority 2023, dated 2024):
Like-named read-outs stand apart in the source and are kept apart here.

Assays:
HDAC2 = HDAC2 (Homo sapiens, UniProt Q92769); assay: HDAC enzyme inhibitory activity, FRET method; type: biochemical
Protocol: (§2) The compounds of the present disclosure were assayed for enzyme inhibitory activity against various subtypes of HDAC enzymes by the FRET method. The various subtypes of HDAC enzymes were obtained either through purification or direct purchase of assay kits.
(§3) The specific method was as follows: The enzyme was added to a 384-well plate, and a reaction buffer was added to the control well. Serially diluted DMSO sample solutions were added to the reaction wells, and the plate was incubated at room temperature for 15 min. Then a chromogenic agent was added to stop the reaction, and fluorescence was generated. The fluorescence intensity was measured using an EnVision multi-label microplate reader (excitation: 355 nm, emission: 460 nm). The endpoint value was read after the color development reached stability. The inhibition IC50 of the compounds was calculated using GraphPad Prism4 software relative to DMSO.

HDAC6 = target: T1, HDAC6 (Homo sapiens, UniProt Q9UBN7); assay: HDAC enzyme inhibitory activity, FRET method; type: biochemical; conditions: Table 6; read-out: IC50 HDAC subtype 6
T1 sequence (Q9UBN7 1-1215): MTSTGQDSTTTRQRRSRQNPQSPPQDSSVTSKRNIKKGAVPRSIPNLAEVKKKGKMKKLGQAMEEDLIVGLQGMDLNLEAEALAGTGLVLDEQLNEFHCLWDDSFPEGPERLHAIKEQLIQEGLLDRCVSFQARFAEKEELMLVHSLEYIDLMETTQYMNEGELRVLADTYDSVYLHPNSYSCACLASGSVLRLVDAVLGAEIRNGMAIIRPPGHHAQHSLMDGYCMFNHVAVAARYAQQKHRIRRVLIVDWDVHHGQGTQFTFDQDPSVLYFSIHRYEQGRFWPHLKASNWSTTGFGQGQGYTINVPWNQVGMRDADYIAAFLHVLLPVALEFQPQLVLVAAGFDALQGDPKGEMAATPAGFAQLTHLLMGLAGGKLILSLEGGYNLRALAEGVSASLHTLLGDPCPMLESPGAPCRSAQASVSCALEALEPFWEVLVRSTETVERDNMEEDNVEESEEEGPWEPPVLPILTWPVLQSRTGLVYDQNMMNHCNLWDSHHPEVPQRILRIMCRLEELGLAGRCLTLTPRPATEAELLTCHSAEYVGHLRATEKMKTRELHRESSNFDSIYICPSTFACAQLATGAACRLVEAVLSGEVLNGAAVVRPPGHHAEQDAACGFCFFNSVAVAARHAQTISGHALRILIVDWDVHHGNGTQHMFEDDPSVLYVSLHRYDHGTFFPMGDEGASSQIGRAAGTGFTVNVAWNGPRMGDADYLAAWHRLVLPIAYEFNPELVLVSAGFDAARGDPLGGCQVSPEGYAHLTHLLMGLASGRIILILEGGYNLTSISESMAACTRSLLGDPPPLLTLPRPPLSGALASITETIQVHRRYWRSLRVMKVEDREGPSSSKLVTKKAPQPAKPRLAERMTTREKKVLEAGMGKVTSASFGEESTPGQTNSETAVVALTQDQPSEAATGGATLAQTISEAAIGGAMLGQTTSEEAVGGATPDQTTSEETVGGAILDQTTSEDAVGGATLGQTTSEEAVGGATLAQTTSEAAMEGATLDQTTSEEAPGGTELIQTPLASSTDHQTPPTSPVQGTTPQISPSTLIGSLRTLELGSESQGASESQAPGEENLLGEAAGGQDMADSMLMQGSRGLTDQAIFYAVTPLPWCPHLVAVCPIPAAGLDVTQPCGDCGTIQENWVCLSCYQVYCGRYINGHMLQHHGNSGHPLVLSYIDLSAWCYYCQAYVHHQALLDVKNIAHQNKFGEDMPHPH
Protocol: as §2, §3

HDAC8 = target: T2, HDAC8 (Homo sapiens, UniProt Q9BY41); assay: HDAC enzyme inhibitory activity, FRET method; type: biochemical; conditions: Table 6; read-out: IC50 HDAC subtype 8
T2 sequence (Q9BY41 1-377): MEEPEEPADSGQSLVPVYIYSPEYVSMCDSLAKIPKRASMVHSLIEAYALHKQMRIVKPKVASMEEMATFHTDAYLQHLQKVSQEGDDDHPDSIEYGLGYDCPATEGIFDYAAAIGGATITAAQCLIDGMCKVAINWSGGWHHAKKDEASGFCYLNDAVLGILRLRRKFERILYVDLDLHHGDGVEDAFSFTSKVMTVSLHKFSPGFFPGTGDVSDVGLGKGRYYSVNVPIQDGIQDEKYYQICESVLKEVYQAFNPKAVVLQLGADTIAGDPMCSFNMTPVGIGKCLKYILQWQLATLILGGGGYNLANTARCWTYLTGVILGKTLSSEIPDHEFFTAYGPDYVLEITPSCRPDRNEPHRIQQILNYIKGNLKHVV
Protocol: as §2, §3

Acetyl lysine = assay: Intracellular acetyl lysine level by ELISA in HeLa cells; type: cell-based; conditions: 24 h of treatment
Protocol: (§1) HeLa cells were seeded into a 96-well plate at 20000 cells/well. After overnight adherence culture, the serially diluted compound was added. After 24 h of treatment, intracellular levels of acetyl lysine and H3K 27 acetyl lysine were quantified by ELISA. Table 8. Effect of compound of the present disclosure on levels of acetyl lysine and H3K 27 acetyl lysine

H3K 27 Acetyl lysine = assay: Intracellular H3K 27 acetyl lysine level by ELISA in HeLa cells; type: cell-based; conditions: 24 h of treatment
Protocol: as §1

[1] = Pharmacokinetic experiment in mice; type: in vivo, CD-1 female mice; conditions: mouse, plasma
Protocol: CD-1 female mice aged 7 to 10 weeks were intravenously administered and orally administered at doses of 1 mg/kg and 10 mg/kg, respectively. The mice were fasted for at least 12 h before the administration and given food 4 h after the administration, and they were given ad libitum access to water during the experiment.
On the day of the experiment, animals in the intravenous group were given the corresponding compound by single injection via the tail vein at an administration volume of 10 mL/kg; and animals in the oral group were given the corresponding compound by single intragastric injection at an administration volume of 10 mL/kg. The animals were weighed before administration, and the administration volume was calculated according to the body weight. The sample collection time points were 0.083 h, 0.167 h, 0.5 h, 1 h, 2 h, 4 h, 8 h, and 24 h.
About 200 µL of whole blood was collected through the orbital venous plexus at each time point and used to prepare plasma for concentration determination by high-performance liquid chromatography-tandem mass spectrometry (LC-MS/MS). The plasma concentrations were processed using a non-compartmental model of Winnolin pharmacokinetic software, and the pharmacokinetic parameters were calculated using a linear-log trapezoidal method. Table 9. Results of in vivo pharmacokinetic evaluation of compounds of the present disclosure

[2] = Stability in liver microsomes; type: in vitro ADME; conditions: for half-life at 1 µM: 1 µM compound, 37 °C, NADPH regeneration system
Protocol: After the 1 µM compound was individually incubated at 37 °C for various durations with […] liver microsomes from humans, monkeys, beagles, rats, or mice in the presence of an NADPH regeneration system, LC-MS-MS was used to analyze the remaining amount of the compound, and T1/2 was calculated. Table 10. Evaluation results of stability of compounds of the present disclosure in human and mouse liver microsomes

[3] = Injection (1 mg/kg), intravenous

Chain of HDAC2 (Q92769 whole entry, species assumed): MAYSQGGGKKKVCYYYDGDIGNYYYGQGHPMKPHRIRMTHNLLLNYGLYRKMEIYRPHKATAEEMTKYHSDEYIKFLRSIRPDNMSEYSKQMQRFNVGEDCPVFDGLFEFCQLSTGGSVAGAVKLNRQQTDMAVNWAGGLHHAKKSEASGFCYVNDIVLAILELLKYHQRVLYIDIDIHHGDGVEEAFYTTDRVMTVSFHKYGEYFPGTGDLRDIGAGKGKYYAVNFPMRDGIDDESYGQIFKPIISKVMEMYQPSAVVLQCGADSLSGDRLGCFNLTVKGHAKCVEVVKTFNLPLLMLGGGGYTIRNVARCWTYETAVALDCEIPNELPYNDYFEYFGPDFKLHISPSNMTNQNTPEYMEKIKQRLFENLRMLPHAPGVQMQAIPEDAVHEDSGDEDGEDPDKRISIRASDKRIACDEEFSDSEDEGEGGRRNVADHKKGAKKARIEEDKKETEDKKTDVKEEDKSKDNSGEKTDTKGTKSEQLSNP

For `CS(C)(=O)=Nc1ccc(C(=O)Nc2cc(-c3ccc(F)cc3)ccc2N)cc1` [Compound 1, N-(4-Amino-4'-fluoro-[1,1'-biphenyl]-3-yl)-4-((dimethyl(oxo)-1^λ-6-sulfaneylidene)amino)benzamide], the IC50 (HDAC2; Table 4, read-out: IC50 HDAC2) was < 0.5 µM, the IC50 (HDAC2; Table 5, read-out: IC50 HDAC2) was 0.03 to 0.3 µM and the IC50 (HDAC2; Table 6, read-out: IC50 HDAC subtype 2) was 0.141 µM. For the same compound, the IC50 (HDAC6) was > 30 µM, the IC50 (HDAC8) was > 30 µM and the “Acetyl lysine Maximum (%)” value (Acetyl lysine) was 500%. The “Acetyl lysine Minimum effective concentration” value (Acetyl lysine) was 16 nM, the “H3K 27 Acetyl lysine Maximum (%)” value (H3K 27 Acetyl lysine) was 200% and the “H3K 27 Acetyl lysine Minimum effective concentration” value (H3K 27 Acetyl lysine) was 80 nM. For the same compound, the AUC(0-t) [1, 3] was 2.28 µg·h/mL, the clearance [1, 3] was 0.437 L/h/kg and the half-life [1, 3] was 3.01 h. It also gave a Vd ([1]; Injection (1 mg/kg), intravenous, read-out: Vdss) of 1.68 L/kg, an AUC(0-t) ([1]; Oral administration (10 mg/kg)) of 15.4 µg·h/mL and a Cmax ([1]; Oral administration (10 mg/kg)) of 1.37 µg/mL. It also gave a Tmax ([1]; Oral administration (10 mg/kg)) of 2 h, a bioavailability ([1]; Oral administration (10 mg/kg)) of 67.4% and a half-life ([1]; Oral administration (10 mg/kg)) of 2.73 h. For the same compound, the CLint scaled at 1 µM ([2]; Human liver microsomes) was 1.04 L/h/kg, the Clliver ([2]; Human liver microsomes) was 0.567 L/h/kg and the half-life at 1 µM ([2]; Human liver microsomes) was 1.67 h. It also gave a CLint scaled at 1 µM ([2]; Mouse liver microsomes) of 0.333 L/h/kg, a Clliver ([2]; Mouse liver microsomes) of 0.314 L/h/kg and a half-life at 1 µM ([2]; Mouse liver microsomes) of 16.4 h.
